“Also recorded” adds a separate entry of the source. *1 amine or outer side, *2 acyl side, *3 side chain or, on linkers, in order; H or OH if unused. Where a SMILES comes first, the peptide text is derived from it. Where no end group is shown, it is not given here. Side-chain parts run from the residue outwards. [ ]: non-standard residue; d: D form. The star is where a group is joined. C18 diacid = O=C(O)CCCCCCCCCCCCCCCCC(=O)*; C16 diacid = O=C(O)CCCCCCCCCCCCCCC(=O)*; γGlu = O=C(O)[C@H](CCC(=O)[*:2])N[*:1]; Glutaryl = O=C(CCCC(=O)[*:2])[*:1]; Nle = CCCC[C@H](N)C(=O)O; AEEA = NCCOCCOCC(=O)O; Aib = CC(C)(N)C(=O)O
Columns and labels:
[1] = system: mice on a fat-diet, or lean mice; settings: cited from earlier work; for absolute body weight or cumulative food intake: chronic administration, compared with vehicle control
[2] = in vivo
Source text: During the treatment period all monkeys received daily SC injections after breakfast with the respective test substance for a total of 42 days. […] All treatment groups and the vehicle group received injection volumes based on individual body weights. After the 42 days of treatment, body weight, food intake, and blood/serum chemistries were monitored for an additional 14-day washout period. Blood collections and dosing occurred in conscious monkeys for the entire study.

DPP-IV enzyme = DPP-IV enzyme (Homo sapiens, UniProt P27487); settings: cited from earlier work
Chain of DPP-IV enzyme (P27487 whole entry, species assumed): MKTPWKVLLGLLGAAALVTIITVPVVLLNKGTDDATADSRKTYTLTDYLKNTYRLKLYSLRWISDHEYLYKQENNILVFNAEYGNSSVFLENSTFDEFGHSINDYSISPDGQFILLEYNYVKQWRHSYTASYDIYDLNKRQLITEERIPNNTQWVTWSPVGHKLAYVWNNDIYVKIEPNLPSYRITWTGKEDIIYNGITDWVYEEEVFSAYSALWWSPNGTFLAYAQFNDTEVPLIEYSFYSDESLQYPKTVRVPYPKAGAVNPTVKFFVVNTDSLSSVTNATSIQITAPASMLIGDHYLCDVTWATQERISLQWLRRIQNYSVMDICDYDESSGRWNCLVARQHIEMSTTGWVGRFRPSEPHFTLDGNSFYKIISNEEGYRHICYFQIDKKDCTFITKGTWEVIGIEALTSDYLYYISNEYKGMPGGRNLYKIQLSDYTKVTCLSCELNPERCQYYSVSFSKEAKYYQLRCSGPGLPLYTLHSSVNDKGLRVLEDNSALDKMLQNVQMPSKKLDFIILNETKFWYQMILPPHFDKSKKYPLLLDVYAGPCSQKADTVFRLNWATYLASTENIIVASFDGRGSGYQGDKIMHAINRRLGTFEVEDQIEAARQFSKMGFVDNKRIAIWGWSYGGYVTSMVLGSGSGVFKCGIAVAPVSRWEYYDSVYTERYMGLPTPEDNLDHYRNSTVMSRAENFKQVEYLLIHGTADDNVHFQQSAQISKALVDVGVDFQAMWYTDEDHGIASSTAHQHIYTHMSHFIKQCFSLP

[3] = system: High fat diet (HFD) induced obese cynomolgus monkeys; experiment: cynomolgus monkey efficacy study, 42 days daily SC treatment; assay type: in vivo, cynomolgus monkeys (Macaca fascicularis)
Description: Cynomolgus monkeys (Macaca fascicularis) were fed a HFD consisting of 50 g of KBI proprietary standard monkey formula feed in the morning 9:00 to 10:00 AM, 150 g apple in the afternoon 14:00 to 15:00 PM, and 100 g of KBI proprietary HFD in the evening 16:00 to 17:00 PM. Water was provided ad libitum. […] Values represent means±SEM, n=9-10 per group.
High fat diet (HFD) induced obese cynomolgus monkeys (Macaca fascicularis, male, >7.5 kg, fasting glucose<90 mg/dL, fasting insulin<60 μU/mL, >8 years of age) were obtained from KBI's stock colony. Lighting in animal holding rooms was maintained on 12:12 hour light:dark cycle, and the ambient temperature and humidity range was set at 18-29 degrees C. and 30 to 90%, respectively. The monkeys were individually housed in cages arranged to allow visual and auditory contacts with conspecifics. The monkeys were provided with cage toys for environmental enrichment to ensure adequate welfare and psychological well-being.
8 days prior to the treatment phase, and KBI's proprietary HFD was provided adlibitum which is in contrast to the defined amount of 100 g that the monkeys were normally served. During the entire treatment phase (42 days) and washout period (14 days) monkeys were provided three meals per day consisting of 50 g of KBI proprietary standard monkey formula feed in the morning 9:00-10:00 AM, one regular apple (150 g) in the afternoon 14:00-15:00 PM, and ad libitum of KBI proprietary HFD in the evening 16:00-17:00 PM. Water was provided adlibitum.
The cynomolgus monkeys were acclimated/trained to experimental procedures for three weeks followed by one week with continued training and introduction of adlibitum HFD prior to start of treatment. The monkeys were randomly sorted into six separate dose groups with 10 animals each based on acclimation data sets.
Daily food intake measurements were recorded during the entire duration of the study from the acclimation period until the end of the washout period. After each feeding time, all of the remaining food was withdrawn and intake was determined by weighing the left-over food.
Body weights were measured every third to fourth day during the study period. The monkeys were non-sedated and were transferred into small transfer cages and transported to a weighing scale. The tare weights of the transfer cages were determined prior to weighing the monkeys inside the transfer cages. The monkeys were weighed twice inside the transfer cages and recordings were made to the nearest 0.1 kg.
Whole blood sample was collected from a peripheral vein after an overnight fast according to the specified time points and transferred directly into serum separation tubes (SST). Serum was separated by centrifugation at 2500×g for 10 min at 4° C. Insulin, CTX and PTH levels were analyzed using the Cobas e411 Immunology analyzer. Other parameters were analyzed using the Roche C311 or C501 biochemical analyzer.

high-fat mice = settings: daily intraperitoneal injections, cited from earlier work; for glucose tolerance / glycaemic control: compared with high-fat controls

NaAc-K10[γEγE-C16]-Arg18-hGIP(5-42) [GIPA-2]
absolute body weight or cumulative food intake [1]: no effect
GIPR antagonist potency in mice (comparison) ([1]; in mice): more potent antagonist than GIPA-1
glucose stimulated insulin secretion ([1]; in mice): inhibited glucose stimulated insulin secretion

CCCC[C@H](NC(=O)C(C)(C)NC(=O)[C@@H](NC(=O)[C@H](CO)NC(=O)[C@H](Cc1ccc(O)cc1)NC(=O)[C@H](CCC(=O)O)NC(=O)[C@H](CO)NC(=O)[C@@H](NC(=O)[C@H](Cc1ccccc1)NC(=O)[C@@H](NC(=O)CNC(=O)CCCC(=O)O)[C@@H](C)O)[C@@H](C)CC)[C@@H](C)CC)C(=O)N[C@@H](CCC(=O)O)C(=O)N[C@@H](CCCCN)C(=O)N[C@H](C(=O)N[C@@H](CCCCNC(=O)COCCOCCNC(=O)COCCOCCNC(=O)CC[C@H](NC(=O)CCCCCCCCCCCCCCCCC(=O)O)C(=O)O)C(=O)N[C@@H](CCC(N)=O)C(=O)N[C@@H](CCC(N)=O)C(=O)N[C@@H](CCC(=O)O)C(=O)N[C@@H](Cc1ccccc1)C(=O)N[C@H](C(=O)N[C@@H](CCC(=O)O)C(=O)N[C@@H](Cc1c[nH]c2ccccc12)C(=O)N[C@@H](CC(C)C)C(=O)N[C@@H](CC(C)C)C(=O)N[C@@H](C)C(=O)N[C@@H](CCC(N)=O)C(=O)N[C@@H](CCCCN)C(=O)N1CCC[C@H]1C(=O)N[C@@H](CO)C(=O)N[C@@H](CO)C(=O)NCC(=O)N[C@@H](C)C(=O)N1CCC[C@H]1C(=O)N1CCC[C@H]1C(=O)N1CCC[C@H]1C(=O)N[C@@H](CO)C(=O)O)C(C)C)[C@@H](C)CC [Compound 2] (Glutaryl-GTFISEYSI[Aib][Nle]EKIK([AEEA-AEEA-γGlu-C18 diacid])QQEFVEWLLAQKPSSGAPPPS-OH)
half life (in words) [2]: long half live

GLP-1: 31-amino acid peptide derived from the proglucagon gene, secreted by intestinal L-cells
half-life (DPP-IV enzyme): approximately 2 minutes

mouse GIP(3-30)NH2 (EGTFISDYSIAMDKIRQQDFVNWLLAQR-NH2; UniProt P48756 46-73, looked up, fragment) [GIPA-1, GIPR antagonist GIP peptide of West et al. 2021]
absolute body weight or cumulative food intake [1]: no effect

EGTFISEYSIAibLEKIKQQEFVEWLLAQKPSSGAPPPS-C16-diacid/18K (GIP(3-30)+Cex(31-39) [D9E;A13Aib;M14L;D15E;H18K;D21E;N24E]) (EGTFISEYSI[Aib]LEKIK(C16 diacid)QQEFVEWLLAQKPSSGAPPPS; ends and bridges not checked) [Compound 1]
body weight during the study period (in words) ([3]; 42 days treatment, placebo gained 9%): maintained body weight; also recorded: no change in weight
fasting triglycerides (in words) ([3]; FIG. 1D): reduced fasting triglycerides
average HOMA-IR (Homeostatic Model Assessment for Insulin Resistance) ([3]; at day 43, FIG. 1C, placebo 25.1): 13.0
reduction in LDL-c (individual %-change from predose) ([3]; from predose): 26%

(Pro3)GIP
glucose tolerance (high-fat mice): significantly improved glucose tolerance
glycaemic control (high-fat mice): restored glycaemic control to normal levels
food intake and body weights (high-fat mice): not affected

(d-Ala8)GLP-1
glucose tolerance (high-fat mice): significantly improved glucose tolerance
glycaemic control (high-fat mice): restored glycaemic control to normal levels
food intake and body weights (high-fat mice): not affected

From patent US20240277813A1, “TREATMENT OF OBESITY AND OBESITY-RELATED DISORDERS” (ANTAG THERAPEUTICS APS, priority 2021, published 2024)
